{
  "source": "patent US20100029734A1",
  "about": "“METHODS FOR BREAST CANCER SCREENING AND TREATMENT” (Ore Pharmaceuticals Inc., priority 2008, published 2010)",
  "key": {"[1]": {"system": "T47D (ER+ cell line)", "test": "RT-CES cell proliferation assay, T47D", "assay_type": "cell-based, human", "method": "(§1) Unless otherwise indicated, cell proliferation assays described in Examples 2-5 were performed using a Real-Time Cell Electronic Sensing (RT-CES™ 96X) instrument from ACEA Bioscience (San Diego, Calif.). This instrument utilizes an electronic readout (impedance) to non-invasively quantify adherent cell proliferation and viability in real time.\n(§2) Cells were seeded in 96-well microtiter plates containing microelectronic sensor arrays (96E plates; ACEA). Cells were maintained in RPMI 1640 (Invitrogen, Carlsbad, Calif.) supplemented with 10% fetal bovine serum (FBS) (Hyclone, Logan, Utah) and were cultured at 37° C. in a humidified atmosphere containing 5% CO2. For proliferation assays, cells were seeded (20,000 cells/well), allowed to attach and grown overnight in standard growth medium. Cells were then serum-starved for 8 hours prior to the proliferation assay in presence or absence of test compound(s). The proliferation response was continuously monitored by measuring the impedance change in each well for the indicated number of hours. Data are expressed as cell index (CI) change relative to time in culture, reflecting measured changes in electrical impedance. Each value shown is an average of 6 wells.\n(§3) T47D (American Type Culture Collection, Manassas, Va. (ATCC) cat. HTB-133) is an ER+ cell line derived from human mammary gland ductal carcinoma Other ER+ cell lines used in studies reported herein include ZR-75 and HCC70. HCC1143 (ATCC cat. CRL-2321) is an ER− cell line also derived from human mammary gland ductal carcinoma.\n(§4) Following the 8 hour starvation phase, either Ang II (Sigma-Aldrich), 500 nM, or vehicle control was added to the cell culture. […] Ang II also stimulated proliferation of ER+ cell lines HCC70, by approximately 30%, and ZR-75, by approximately 35%, relative to vehicle control (data not shown)."}, "[2]": {"system": "HCC1143 (ER− cell line)", "test": "RT-CES cell proliferation assay, HCC1143", "assay_type": "cell-based, human", "method": "as §1, §2, §3, §4"}, "[3]": {"system": "T47D (ER+, PR+)", "settings": "T47D cells; cited from earlier work"}, "[4]": {"system": "T47D", "settings": "cited from earlier work"}, "[5]": {"system": "MCF-7", "settings": "cited from earlier work"}, "[6]": {"system": "ZR-75", "test": "RT-CES cell proliferation assay, ZR-75", "assay_type": "cell-based, human", "method": "as §1\nas §2, with “wells. […]” for “wells.”"}, "[7]": {"system": "HCC38", "test": "RT-CES cell proliferation assay, HCC38", "assay_type": "cell-based, human", "method": "as §1\nas §2, with “wells. […]” for “wells.”"}, "[8]": {"system": "HCC1395", "test": "RT-CES cell proliferation assay, HCC1395", "assay_type": "cell-based, human", "method": "as §1\nas §2, with “wells. […]” for “wells.”"}, "[9]": {"system": "HCC1937", "test": "RT-CES cell proliferation assay, HCC1937", "assay_type": "cell-based, human", "method": "as §1\nas §2, with “wells. […]” for “wells.”"}, "[10]": {"system": "cells cultured from invasive ductal carcinomas", "settings": "cells positive for ER and PR, cited from earlier work"}, "[11]": {"system": "HCC70", "test": "RT-CES cell proliferation assay, HCC70", "assay_type": "cell-based, human", "method": "as §1\nas §2, with “wells. […]” for “wells.”"}, "[12]": {"system": "HCC1954", "test": "RT-CES cell proliferation assay, HCC1954", "assay_type": "cell-based, human", "method": "as §1\nas §2, with “wells. […]” for “wells.”"}, "[13]": {"system": "T47D xenografts", "test": "Growth of ER+ breast cancer cell line xenografts in NODscid mice", "assay_type": "in vivo", "settings": "3-5 weeks, female NODscid mice", "method": "Female NODscid mice of age 5-6 weeks received a subcutaneous estrogen pellet implant (1.7 mg). Twenty four hours after estrogen pellet implantation, the mice received tumor implantation by subcutaneous injection of T47D cells to the flank (approximately 2.5×10^6 cells/mouse). The mice were ear-notched for identification and housed 4 animals per cage. […] Tumors were measured 3 times weekly using digital calipers. Body weight was measured twice weekly. Clinical observations were conducted weekly."}, "[14]": {"system": "invasive breast cancer", "settings": "administered for 5 years; women having risk factors; cited from earlier work"}},
  "note": "“Also recorded” adds a separate entry of the source.",
  "data": [
    {"compound": "CCCc1nc2c(C)cc(-c3nc4ccccc4n3C)cc2n1Cc1ccc(-c2ccccc2C(=O)O)cc1", "note": "[telmisartan]", "values": [
      {"measurement": "inhibition of Ang II-induced growth", "setting": "[1]; T47D, telmisartan 1.25 μM or 5 μM + Ang II 500 nM", "value": "significantly inhibited Ang II-induced growth"},
      {"measurement": "effect on cell proliferation", "setting": "[2]; HCC1143, telmisartan 1.25 μM or 5 μM + Ang II 500 nM", "value": "No effects"}
    ]},
    {"compound": "C[C@H](CS)C(=O)N1CCC[C@H]1C(=O)O", "note": "[Captopril, (2S)-1-((2S)-2-methyl-3-sulfanylpropanoyl)pyrrolidine-2-carboxylic acid]", "values": [
      {"measurement": "ER protein concentration", "setting": "[3]", "value": "reduced ER"},
      {"measurement": "PR protein concentration", "setting": "[3]", "value": "increased PR"},
      {"measurement": "[3H]thymidine incorporation (an index of cell proliferation)", "setting": "[3]", "value": "inhibited [3H]thymidine incorporation"}
    ]},
    {"compound": "NCCCCC(NC(CCc1ccccc1)C(=O)O)C(=O)N1CCCC1C(=O)O.O.O", "note": "(stereo not shown) [lisinopril, 1-(6-amino-2-(1-carboxy-3-phenyl-propyl)aminohexanoyl)pyrrolidine-2-carboxylic acid dihydrate]", "values": [
      {"measurement": "ER protein concentration", "setting": "[3]", "value": "No such effects"},
      {"measurement": "PR protein concentration", "setting": "[3]", "value": "No such effects"},
      {"measurement": "[3H]thymidine incorporation (an index of cell proliferation)", "setting": "[3]", "value": "No such effects"}
    ]},
    {"compound": "Ang II: peptide angiotensin II, a major regulator of blood pressure and cardiovascular homeostasis; from Sigma-Aldrich (DRVYIHPF; Angiotensin-2; UniProt P01019 25-32, looked up)", "values": [
      {"measurement": "stimulation of cell growth by Ang II", "setting": "[4]", "value": "significant stimulation of cell growth"},
      {"measurement": "Ang II proliferation response", "setting": "[1]; T47D", "value": "positive"},
      {"measurement": "effect of Ang II on growth / cell proliferation", "setting": "[1]; T47D (ER+), Ang II 500 nM vs vehicle control, after 8 h serum starvation", "value": "significantly stimulated growth; also recorded: substantial increase in cell proliferation"},
      {"measurement": "Ang II proliferation response", "setting": "[2]; HCC1143", "value": "negative"},
      {"measurement": "effect of Ang II on growth / cell proliferation", "setting": "[2]; HCC1143 (ER−), Ang II 500 nM vs vehicle control", "value": "No effects"},
      {"measurement": "proliferative effect", "setting": "[5]", "value": "dose-dependent proliferative effect"},
      {"measurement": "Ang II proliferation response", "setting": "[6]; ZR-75", "value": "positive"},
      {"measurement": "stimulation of proliferation relative to vehicle control", "setting": "[6]; ZR-75 (ER+), Ang II, data not shown", "value": "approximately 35%"},
      {"measurement": "Ang II proliferation response", "setting": "[7]", "value": "negative"},
      {"measurement": "Ang II proliferation response", "setting": "[8]", "value": "negative"},
      {"measurement": "Ang II proliferation response", "setting": "[9]", "value": "negative"},
      {"measurement": "proliferation of cultured cells", "setting": "[10]; Ang II", "value": "stimulated in a dose-dependent manner"},
      {"measurement": "Ang II proliferation response", "setting": "[11]; HCC70", "value": "positive"},
      {"measurement": "stimulation of proliferation relative to vehicle control", "setting": "[11]; HCC70 (ER+), Ang II, data not shown", "value": "approximately 30%"},
      {"measurement": "Ang II proliferation response", "setting": "[12]", "value": "negative"}
    ]},
    {"compound": "CCOc1nc2cccc(C(=O)OC(C)OC(=O)OC3CCCCC3)c2n1Cc1ccc(-c2ccccc2-c2nnn[nH]2)cc1", "note": "(stereo not shown) [candesartan cilexetil]", "values": [
      {"measurement": "growth in tumor volume", "setting": "[13]; candesartan cilexetil 10, 30, 100 mg/kg p.o. once daily", "value": "reduced in a dose-dependent fashion"}
    ]},
    {"compound": "CCCCc1nc(Cl)c(CO)n1Cc1ccc(-c2ccccc2-c2nn[nH]n2)cc1", "note": "[losartan]", "values": [
      {"measurement": "effect on Ang II-stimulated proliferation", "setting": "[10]", "value": "blocked"}
    ]},
    {"compound": "CC/C(=C(\\c1ccccc1)c1ccc(OCCN(C)C)cc1)c1ccccc1", "note": "[tamoxifen]", "values": [
      {"measurement": "reduction of incidence of invasive breast cancer", "setting": "[14]", "value": "~50", "unit": "%"},
      {"measurement": "effect on Ang II-induced cell proliferation", "setting": "[1]; T47D, tamoxifen 7.5 μM + Ang II 500 nM", "value": "reduced cell proliferation to a level lower than that of vehicle control"},
      {"measurement": "growth in tumor volume", "setting": "[13]; tamoxifen 0.1, 0.3, 1.0 mg/kg p.o. once daily", "value": "reduced in a dose-dependent fashion"}
    ]},
    {"compound": "CCCCC1=NC2(CCCC2)C(=O)N1Cc1ccc(-c2ccccc2-c2nnn[nH]2)cc1", "note": "[irbesartan]", "values": [
      {"measurement": "inhibition of Ang II-induced growth / cell proliferation", "setting": "[1]; T47D, AT1 receptor antagonist 5 μM + Ang II 500 nM", "value": "significantly inhibited Ang II-induced growth; also recorded: reversed the Ang II effect"},
      {"measurement": "effect on cell proliferation", "setting": "[2]; HCC1143, AT1 receptor antagonist 5 μM + Ang II 500 nM, data not shown", "value": "No effects"},
      {"measurement": "growth in tumor volume", "setting": "[13]; irbesartan 30, 100, 300 mg/kg p.o. once daily", "value": "lowest dose tested (30 mg/kg) appeared to give the greatest effect"}
    ]}
  ]
}
